# Patent US9115088B2, “Anti-malarial agents” (MERCK PATENT GMBH, priority 2012, dated 2015)
# Where a name gives a salt, the structure may show the parent alone. Read-outs that look alike come from different tables or passages of the source.
# Tests used:
# [1] = test system: Plasmodium falciparum strain 3D7; test: Plasmodium falciparum 3D7 growth inhibition, SYBRgreen fluorescence assay; type: cell-based; settings: minimum of 3 independent experiments, read-out: EC50 (μM) for Pf 3D7
# Description: Parasite cultures and cytotoxicity assay methodology for Plasmodium falciparum. Cultures of the widely-used malaria reference strain of chloroquinine-sensitive Plasmodium falciparum strain 3D7 were maintained in a 5% suspension of human red blood cells cultured in RPMI 1640 medium supplemented with 0.5% Albumax II (available from Gibco Life Technologies, San Diego, Calif.), 12 mM sodium bicarbonate, 0.2 mM hypoxanthine, (pH 7.3), and 20 mg/litre gentamicin at 37° C., in an atmosphere of 1% O2, 3% CO2 with a gas balance of nitrogen. […] Mefloquine was used as a drug control to monitor the quality of the assay (Z′=0.6 to 0.8, where Z′ is a measure of the discrimination between the positive and negative controls on a screen plate). Dose-response curves were determined from a minimum of 3 independent experiments. Compound bioactivity was expressed as EC50, the effective concentration of compound causing 50% parasite death.
# [2] = test system: GFP-transfected Plasmodium berghei ANKA strain; test: Plasmodium berghei mouse model, standard Peter's four-day test; type: in vivo; settings: NMRI female mice, oral, 1 mg/kg 4x (once a day for four days); for % Reduction in parasitaemia: parasitaemia 24 h after last dose
# Source text: Plasmodium species that lead to human malarial infection are essentially unable to infect non-primate animal models. Rodent models as antimalarial drug discovery efficacy models for compound screening have been extensively used and validated for use through the identification of several antimalarial drugs such as mefloquine, and artemisinin derivatives. Such mouse models, including the Plasmodium berghei mouse model are an integral part of the drug discovery and development pathway. […] In particular experimental results have shown that a compound of formula (I) has improved potency, expressed as ED90, the dose required to eradicate 90% of the target infection [ED90 of 0.3-0.1 mg/kg], versus existing anti-malarial drugs.
# Methodology. Using the standard Peter's test in NMRI female mice infected with GFP-transfected Plasmodium berghei ANKA strain were used. Test compounds were dosed orally once a day for four days at nine dose levels ([…], 0.03, 0.1, 0.3, 1, 3, 10, 30 mg/kg) and parasitaemia assessed 24 h after the last dose to determine ED90. The test protocol is described in detail Nature, 2004, 430, 900-904, the contents of which are included herein by reference.
# [3] = Dynamic vapour sorption (DVS) moisture sorption; type: physicochemical; settings: for hygroscopicity (DVS): 25° C.; for water uptake (DVS): 80% R.H./25° C.
# Description: The moisture sorption of compounds of the invention was measured using a SMS (Surface Measurement Systems) DVS Intrinsic. The relative humidity at 25° C. was calibrated against deliquescence point of LiCl, Mg(NO3)2 and KCl. Parameters for DVS test are listed below. [table]
# [4] = Thermogravimetric analysis (TGA); type: physicochemical; settings: 10° C./min; example 1A heated to ~120° C., example 2 to ~150° C.
# Description: Thermogravimetric Analysis (TGA) of compounds of the invention was conducted at 10° C./min ramping form room temperature to desired temperature in open platinum pans using at TA Instruments Q5000 TGA. The temperature was calibrated using nickel and weight using TA-supplied standard weights and verified against calcium oxalate monohydrate dehydration and decomposition. Typical parameters for TGA are described in Table 5. [table]
# [5] = test system: Plasmodium falciparum; test: P. falciparum SCID mouse model; type: in vivo; settings: preliminary results
# Source text: Compounds can be further assessed using a murine model of Plasmodium falciparum malaria (the so-called P. falciparum SCID mouse model). The murine Plasmodium falciparum models require the engrafment of mice with human erythrocytes. The use NODscidlL2Rγ^null mice engrafted with human erythrocytes and competent P. falciparum strains have been validated for the preclinincal evaluation of antimalarials. The test protocol is described in detail at Antimicrobial Agents and Chemotherapy, 2009, 53 4533-4536, the contents of which are included herein by reference.
# [6] = test system: sporogonic development in the mosquito; test: Standard membrane feeding assay (SMFA); type: in vivo; settings: preliminary results
# Source text: The standard membrane feeding assay (SMFA) is used to test the potential effects of compounds or drugs on sporogonic development in the mosquito and it is used to asses their potential for malaria transmission blocking in vivo. The test protocol is described in detail at Antimicrobial Agents and Chemotherapy, 2012, 56 3544-3548 and PLoS ONE 7(8): e42821, the contents of which are included herein by reference.
# [7] = Plasmodium falciparum, 3D7, concentration causing 50% parasite death
# [8] = concentration causing 50% parasite death
SMILES,"EC50 [1, 7] [µM]",Mean Survival [2] [days],% Reduction in parasitaemia [2] [%],"EC50 [1, 8] [µM]",also measured
"O=C(NCCN1CCCC1)c1cc(-c2ccc(CN3CCOCC3)c(F)c2)nc2ccc(F)cc12 [Example 6, 6-fluoro-2-(3-fluoro-4-(morpholinomethyl)phenyl)-N-(2-(pyrrolidin-1-yl)ethyl)quinoline-4-carboxamide]",0.0007,11,99.8,–,–
"O=C(NCCN1CCCC1)c1cc(-c2ccc(CN3CCOCC3)cc2F)nc2ccc(F)cc12 [Example 7, 6-fluoro-2-(2-fluoro-4-(morpholinomethyl)phenyl)-N-(2-(pyrrolidin-1-yl)ethyl)quinoline-4-carboxamide]",0.0005,11,99.9,–,–
"O=C(NCCN1CCCC1)c1cc(-c2ccc(CN3CCOCC3)cc2)nc2ccc(F)cc12 [Example 1, 6-Fluoro-2-[4-(morpholinomethyl)phenyl]-N-(2-pyrrolidin-1-ylethyl)quinoline-4-carboxamide]",–,14,99.9,0.001,solid form change post DVS testing [3]: No solid form change; hygroscopicity (DVS) [3]: non-hygroscopic; water uptake (DVS) [3]: 0.1%; weight loss on heating (TGA) [4]: < 0.1 wt %; in vivo behaviour in the P. falciparum SCID mouse model [5]: desirable in vivo behaviour; in vivo behaviour in standard membrane feeding assay [6]: desirable in vivo behaviour
"O=C(NCCN1CCCC1)c1cc(-c2ccc(CN3CCOCC3)cc2)nc2ccc(Cl)cc12 [Example 3, 6-chloro-2-[4-(morpholinomethyl)phenyl]-N-(2-pyrrolidin-1-ylethyl)quinoline-4-carboxamide]",0.001,–,–,–,–
"O=C(NCCN1CCCC1)c1cc(-c2ccc(CN3CCOCC3)cc2)nc2ccc(F)cc12.O=C(O)/C=C/C(=O)O [Example 2, 6-Fluoro-2-[4-(morpholinomethyl)phenyl]-N-(2-pyrrolidin-1-ylethyl)quinoline-4-carboxamide; fumaric acid salt]",–,–,–,0.007,solid form change post DVS testing [3]: No solid form change; hygroscopicity (DVS) [3]: slightly hygroscopic; water uptake (DVS) [3]: ~1.2%; weight loss on heating (TGA) [4]: negligible weight loss
"O=C(NCCN1CCCC1)c1cc(-c2ccc(CN3CCOCC3)cc2)nc2ccccc12 [Example 5, 2-[4-(morpholinomethyl)phenyl]-N-(2-pyrrolidin-1-ylethyl)quinoline-4-carboxamide; fumaric acid salt]",–,–,–,0.003,–
"O=C(NCCN1CCCC1)c1cc(-c2ccc(CN3CCS(=O)(=O)CC3)cc2)nc2ccc(F)cc12 [Example 9, 2-(4-((1,1-dioxidothiomorpholino)methyl)phenyl)-6-fluoro-N-(2-(pyrrolidin-1-yl)ethyl)quinoline-4-carboxamide]",0.0006,7,99.0,–,–
"O=C(NCCN1CCCC1)c1cc(-c2cc(F)c(CN3CCOCC3)c(F)c2)nc2ccc(F)cc12 [Example 8, 2-(3,5-difluoro-4-(morpholinomethyl)phenyl)-6-fluoro-N-(2-(pyrrolidin-1-yl)ethyl)quinoline-4-carboxamide]",0.004,–,–,–,–
"O=C(NCCN1CCCC1)c1cc(-c2ccc(CN3CCOCC3)cc2)nc2ccccc12 [Example 4, 2-[4-(morpholinomethyl)phenyl]-N-(2-pyrrolidin-1-ylethyl)quinoline-4-carboxamide]",–,–,–,0.001,–
"O=C(NCCN1CCCC1)c1cc(-c2ccc(CN3CCOCC3)cc2Cl)nc2ccc(F)cc12 [Example 11, 2-(2-chloro-4-(morpholinomethyl)phenyl)-6-fluoro-N-(2-(pyrrolidin-1-yl)ethyl)quinoline-4-carboxamide; fumaric acid salt]",0.003,–,–,–,–
